Measured values: patent publication US7653428B2, “Methods for diagnosing a neurodegenerative condition” (The Brigham and Women's Hospital, Inc., priority 2000, dated 2010)

B1: catalase: antioxidant scavenging enzyme (protein, UniProt P04040 2-527, looked up)
Catalase: ADSRDPASDQMQHWKEQRAAQKADVLTTGAGNPVGDKLNVITVGPRGPLLVQDVVFTDEMAHFDRERIPERVVHAKGAGAFGYFEVTHDITKYSKAKVFEHIGKKTPIAVRFSTVAGESGSADTVRDPRGFAVKFYTEDGNWDLVGNNTPIFFIRDPILFPSFIHSQKRNPQTHLKDPDMVWDFWSLRPESLHQVSFLFSDRGIPDGHRHMNGYGSHTFKLVNANGEAVYCKFHYKTDQGIKNLSVEDAARLSQEDPDYGIRDLFNAIATGKYPSWTFYIQVMTFNQAETFPFNPFDLTKVWPHKDYPLIPVGKLVLNRNPVNYFAEVEQIAFDPSNMPPGIEASPDKMLQGRLFAYPDTHRHRLGPNYLHIPVNCPYRARVANYQRDGPMCMQDNQGGAPNYYPNSFGAPEQQPSALEHSIQYSGEVRRFNTANDDNVTQVRAFYVNVLNEEQRKRLCENIAGHLKDAQIFIQKKAVKNFTEVHPDYGSHIQALLDKYNAEKPKNAIHTFVQSGSHLAAREKANL

Columns and labels:
[1] = system: hTSLP (human total soluble lens protein); test: Turbidity assay of human total soluble lens protein aggregation (absorbance at 400 nm); format: biochemical; settings: for promotion of hTSLP/hTLP aggregation: hTSLP 1 mg/ml, 37° C. in the dark, peptide added; for effect on Aβ-potentiated hTSLP aggregation: added during incubation of hTSLP with hAβ1-42
Procedure: Human lenses with intact capsules were dissected from whole globes and homogenized in 1 mL HPLC water. The homogenate was centrifuged for at 100,000×g for 1 hour at 4° C. and the supernatant utilized as hTLSP. Protein concentration was determined using a commercially available kit (Pierce). The final hTSLP concentration was 1 mg/mL.
Test solutions of hTSLP (1 mg/ml) were plated to a final volume of 200 μL per well in 96 well microtiter plates with black sidewalls. Peptides and/or inhibitors were added to these solutions as indicated. Plates were incubated in the dark at 37° C. under humidified, CO2-balanced conditions. Turbidity (optical density) was assessed on a SpectraMax-Plus spectrophotometric plate reader set at a wavelength of 400 nm.
(§1) Aggregation experiments were carried out in 96 well black micro titer plates, in the 2dark. Depending on the experiment, a combination of 20 μL of 10× lenticular protein (final concentration 1 mg/mL), 20 μL of 10× chelator solution (final concentration 200 μM), 20 μL of Catalase and/or SOD (final concentrations of 500 U/mL and 100 U/mL respectively), 20 μL of Aβ (final concentration of 10 μM), 20 μL of metal solution (final concentration 1 μM), and an amount of PBS buffer to bring the total volume in the well to 200 μL. hTLP aggregation or bTLP aggregation was monitored by observing an increase in absorbance at 400 nm using a Spectramax UV-V is spectrophotometer.

[2] = system: hTSLP (human total soluble lens protein); test: Thioflavin-T fluorescence (total β-sheet content of protein mixture); format: biochemical; settings: added during incubation of hTSLP with hAβ1-42
Procedure: Fluorescence assays were conducted according to a standard protocols.
To determine whether the Aβ-induced aggregation of hTSLP was accompanied by conformational changes, the total β-sheet content of the protein mixture was measured by monitoring thioflavin-T fluorescence.

[3] = system: hTSLP (human total soluble lens protein); test: Precipitation study of hTSLP incubated with hAβ1-42; format: biochemical; settings: added during incubation of hTSLP with hAβ1-42
Procedure: Solutions of hTSLP (1 mg/ml) were incubated with or without hAβ1-42 (10 μM; 45 μg/ml) for 0 or 7 days. The resulting mixtures were then centrifuged at 15,000×g for 15 min and separated into pellet and supernatant fractions. The amount of pelleted protein was calculated by subtracting the supernatant protein concentration on Day 7 from the initial concentration on Day 0.

[4] = system: bTLP (bovine lens protein); test: Spontaneous bovine lens protein (bTLP) aggregation, absorbance at 400 nm; format: biochemical; settings: 37° C. in the dark
Procedure: Filtered phosphate buffered saline solution (pH 7.4) was treated with chelex and used to make stock solutions (10×) for all reagents (chemical or biological). Protein stock solution at a concentration of 10 mg/mL was prepared from the supernatant as described above. Stock solutions of chelators (ethylenediaminetetraacetic acid (EDTA), diethylenetriaminepentaacetic acid (DTPA), or triethylenetetramine (TETA)) were made up at a concentration of 2 mM freshly prepared in PBS. Stock solutions of Catalase and SOD were freshly prepared in PBS to have an activity of 5000 U/mL and 1000 U/mL respectively. Aβ was prepared as a suspension (100 uM) in PBS or HPLC water by sonicating for three minutes such that only monomers or dimers remained. Metals were prepared as a 10 μM solution; Cu is prepared as Cu:glycine (1:6) from copper sulfate.
as §1
The influence of Reactive Oxygen Species ((ROS), Cu/Zn Superoxide Dismutase (SOD), Catalase (Cat)) on spontaneous bTLP aggregation was analyzed.

[5] = cited from earlier work

Molecule	promotion of hTSLP/hTLP aggregation [1]	effect on increased β-sheet content [2]	effect on Aβ-potentiated hTSLP aggregation [1]	effect on protein precipitation [3]	effect on bTLP aggregation [4]	absolute log Ks for Cu ([5]; Cu)	absolute log Ks for Fe ([5]; Fe)	absolute log Ks for Zn ([5]; Zn)	promotion of hTSLP/hTLP aggregation ([1]; listed as insulin)
synthetic rat Aβ1-40: synthetic rat β-amyloid peptide 1-40, relatively redox inert control peptide (DAEFGHDSGFEVRHQKLVFFAEDVGSNKGAIIGLMVGGVV; Amyloid-beta protein 40; UniProt P08592 672-711, looked up)	none								
superoxide dismutase: antioxidant scavenging enzyme		blocked	abolished aggregation	blocked	reduces the extent of bTLP aggregation				
O=C(O)CN(CCN(CC(=O)O)CC(=O)O)CC(=O)O [EDTA, ethylenediaminetetraacetic acid]					reduces the extent of bTLP aggregation				
O=C(O)CN(CCN(CC(=O)O)CC(=O)O)CCN(CC(=O)O)CC(=O)O [DTPA, diethylenetriaminepentaacetic acid]		blocked	abolished aggregation	blocked	reduces the extent of bTLP aggregation	22.0	28.1	19.3	
recombinant human insulin: recombinant human insulin, negative control of approximately the same molecular weight as Aβ	none								no effect on hTLP aggregation
B1		blocked	abolished aggregation	blocked	reduces the extent of bTLP aggregation				
